For test [1], the target named is T1, PRMT5 (Homo sapiens, UniProt O14744).
T1 construct: purchased Viva (custom protein)
Put plainly: PRMT5 biochemical IC50 assay with MTA as cofactor.

For test [2], the system named is HAP1 MTAP-deleted cell line. Put plainly: SDMA in-cell western assay, HAP1 MTAP-deleted. The format is cell-based. The following applies: for IC50: Homo sapiens; for MTAP intact/deleted ratio: IC50 ratio HAP1 MTAP-intact vs HAP1 MTAP-deleted, SDMA in-cell western. In outline:
(§1)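 Compounds were tested in HAP1 cells differing only in MTAP status (endogenous expression versus null). Cellular SDMA levels were then measured by in-cell western, giving an IC50 in each background.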

The test system of test [3] is HAP1 MTAP-deleted cell line. Put plainly: Viability assay, MTAP-deleted cell line. Type of test: cell-based. The following applies: Homo sapiens. The source says:
Table 1 additionally indicates IC50 values in a viability assay for the MTAP-deleted cell line (column 10), indicating the effect of treatment with compound on cell survival.

Test [4] has as its target T1, PRMT5. Put plainly: PRMT5 biochemical IC50 assay with SAM as cofactor.
The target of test [5] is T1, PRMT5. Put plainly: PRMT5 biochemical IC50 assay with no cofactor. The source says:
Table 1 indicates IC50 values (μM) against PRMT5 for exemplary compounds in the presence of SAM as cofactor, with no cofactor, and with MTA as cofactor, respectively (columns 4-6). […] Ki values can be calculated from the IC50 values as described in the Examples section. As detailed in the Examples section, for the assay performed in the presence of SAM, IC50=Ki×1.5 (Ki=IC50/1.5).

Test [6] deals with HAP1 MTAP-intact cell line. As to the kind of experiment: SDMA in-cell western assay, HAP1 MTAP-intact. Type of test: cell-based. The following applies: Homo sapiens. In outline:
as §1

Where [7] appears, read: PRMT5, MTA as cofactor, read-out: MTA IC50.
Where [8] appears, read: HAP1, SDMA in-cell western, HAP1 MTAP-deleted, read-out: HAP1 MTAP deleted IC50.
Setting [9] is: HAP1, viability assay, MTAP-deleted cell line, read-out: HAP1 MTAP deleted viability.
Setting [10] is: PRMT5, SAM as cofactor, read-out: SAM IC50.
The mark [11] stands for this setting: PRMT5, no cofactor, read-out: No Cofactor/rel IC50.
Where [12] appears, read: HAP1, SDMA in-cell western, HAP1 MTAP-intact, read-out: MTAP HAP1 intact IC50.

IC50 and MTAP intact/deleted ratio data for 13 compounds are collected here from patent US11999727B2 (Tango Therapeutics, Inc., priority 2020, dated 2024).

The structures appear in SMILES notation. Like-named read-outs stand apart in the source and are kept apart here. Where only a bound is given, the exact number is not on record here.

T1 sequence (O14744 whole entry): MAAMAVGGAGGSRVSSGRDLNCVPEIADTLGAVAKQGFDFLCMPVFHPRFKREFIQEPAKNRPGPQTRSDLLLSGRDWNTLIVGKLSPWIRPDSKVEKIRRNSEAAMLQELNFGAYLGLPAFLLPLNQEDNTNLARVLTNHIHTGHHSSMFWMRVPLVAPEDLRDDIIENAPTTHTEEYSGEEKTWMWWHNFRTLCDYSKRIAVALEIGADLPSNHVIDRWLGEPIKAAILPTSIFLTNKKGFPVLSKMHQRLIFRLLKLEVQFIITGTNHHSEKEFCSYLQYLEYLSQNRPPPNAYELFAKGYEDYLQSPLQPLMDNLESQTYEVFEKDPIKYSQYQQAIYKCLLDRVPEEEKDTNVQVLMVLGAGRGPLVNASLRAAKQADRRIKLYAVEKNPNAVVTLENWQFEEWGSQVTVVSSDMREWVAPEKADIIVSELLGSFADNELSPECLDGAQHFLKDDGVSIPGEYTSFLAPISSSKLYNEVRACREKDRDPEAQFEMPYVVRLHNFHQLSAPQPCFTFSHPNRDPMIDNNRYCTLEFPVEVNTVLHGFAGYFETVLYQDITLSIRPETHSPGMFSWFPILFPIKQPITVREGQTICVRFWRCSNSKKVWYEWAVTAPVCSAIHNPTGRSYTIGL
T1 sequence (Q9BQA1 whole entry partner): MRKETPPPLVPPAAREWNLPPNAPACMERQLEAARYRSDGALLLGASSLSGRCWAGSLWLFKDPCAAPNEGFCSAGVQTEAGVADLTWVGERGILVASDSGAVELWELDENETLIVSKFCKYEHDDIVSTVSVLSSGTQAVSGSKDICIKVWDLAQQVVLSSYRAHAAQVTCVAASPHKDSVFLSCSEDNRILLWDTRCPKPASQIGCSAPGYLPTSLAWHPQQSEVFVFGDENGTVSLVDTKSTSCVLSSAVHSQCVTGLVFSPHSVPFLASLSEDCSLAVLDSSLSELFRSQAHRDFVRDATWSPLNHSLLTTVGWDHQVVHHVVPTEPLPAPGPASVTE

Regarding `CCc1cc(NC(=O)C(=O)N2C[C@@H](C)CC[C@@H]2c2ccc3sc(CN4CCOCC4)nc3c2)cnc1N` [Compound 1092, N-(6-amino-5-ethylpyridin-3-yl)-2-((2R,5S)-5-methyl-2-(2-(morpholinomethyl)benzo[d]thiazol-5-yl)piperidin-1-yl)-2-oxoacetamide], the IC50 is below 50 nM in test [1] (setting [7]); below 100 nM in test [2] (setting [8]); below 1000 nM in test [3] (setting [9]); 50 to 500 nM in test [4] (setting [10]); below 50 nM in test [5] (setting [11]); 100 to 1000 nM in test [6] (setting [12]). The MTAP intact/deleted ratio entry in test [2] was “A (an IC50 ratio greater than or equal to 10 fold)”.
In the case of `CC(=O)N1CCC(c2nc3cc([C@H]4CC[C@H](C)CN4C(=O)C(=O)Nc4cnc(N)c(C)c4)ccc3s2)CC1` [Compound 1093, 2-((2R,5S)-2-(2-(1-acetylpiperidin-4-yl)benzo[d]thiazol-5-yl)-5-methylpiperidin-1-yl)-N-(6-amino-5-methylpyridin-3-yl)-2-oxoacetamide], the IC50 in test [1] (setting [7]) is below 50 nM; in test [2] (setting [8]) it was below 100 nM; in test [3] (setting [9]) it was below 1000 nM; in test [4] (setting [10]), below 50 nM; in test [5] (setting [11]) it was below 50 nM; in test [6] (setting [12]), below 100 nM. Besides, the MTAP intact/deleted ratio result in test [2] is given as “A (an IC50 ratio greater than or equal to 10 fold)”.
For `CCc1cc(NC(=O)C(=O)N2C[C@@H](C)CC[C@@H]2c2ccc3sc(CCN4CCCC4)nc3c2)cnc1N` [Compound 1095, N-(6-amino-5-ethylpyridin-3-yl)-2-((2R,5S)-5-methyl-2-(2-(2-(pyrrolidin-1-yl)ethyl)benzo[d]thiazol-5-yl)piperidin-1-yl)-2-oxoacetamide], the IC50 was below 50 nM in test [1] (setting [7]); below 100 nM in test [2] (setting [8]); below 1000 nM in test [3] (setting [9]); below 50 nM in test [4] (setting [10]); below 50 nM in test [5] (setting [11]); below 100 nM in test [6] (setting [12]). Also, the MTAP intact/deleted ratio result in test [2] was “A (an IC50 ratio greater than or equal to 10 fold)”.
On to `CCc1cc(NC(=O)C(=O)N2C[C@@H](C)CC[C@@H]2c2ccc3sc(C4CCN(C)CC4)nc3c2)cnc1C` [Compound 1100, N-(5-ethyl-6-methylpyridin-3-yl)-2-((2R,5S)-5-methyl-2-(2-(1-methylpiperidin-4-yl)benzo[d]thiazol-5-yl)piperidin-1-yl)-2-oxoacetamide], for which the IC50 in test [1] (setting [7]) is below 50 nM; in test [2] (setting [8]), below 100 nM; in test [3] (setting [9]), below 1000 nM; in test [4] (setting [10]), below 50 nM; in test [5] (setting [11]), below 50 nM; in test [6] (setting [12]), 100 to 1000 nM. Besides, the MTAP intact/deleted ratio result in test [2] is listed as “A (an IC50 ratio greater than or equal to 10 fold)”.
On to `CCc1cc(NC(=O)C(=O)N2C[C@@H](C)CC[C@@H]2c2ccc3sc([C@H]4C[C@H](N(C)C)C4)nc3c2)cnc1N` [Compound 1101, N-(6-amino-5-ethylpyridin-3-yl)-2-((2R,5S)-2-(2-(3-(dimethylamino)cyclobutyl)benzo[d]thiazol-5-yl)-5-methylpiperidin-1-yl)-2-oxoacetamide], for which the IC50 in test [1] (setting [7]) was below 50 nM; in test [2] (setting [8]), below 100 nM; in test [3] (setting [9]) it was below 1000 nM; in test [4] (setting [10]), below 50 nM; in test [5] (setting [11]) it was below 50 nM; in test [6] (setting [12]), below 100 nM. Also, the MTAP intact/deleted ratio result in test [2] is “A (an IC50 ratio greater than or equal to 10 fold)”.
In the case of `Cc1ncc(NC(=O)C(=O)N2C[C@@H](C)CC[C@@H]2c2ccc3sc(C4CCN(C)CC4)nc3c2)cc1Cl` [Compound 1102, N-(5-chloro-6-methylpyridin-3-yl)-2-((2R,5S)-5-methyl-2-(2-(1-methylpiperidin-4-yl)benzo[d]thiazol-5-yl)piperidin-1-yl)-2-oxoacetamide], the IC50 in test [1] (setting [7]) is below 50 nM; in test [2] (setting [8]), below 100 nM; in test [3] (setting [9]) it was below 1000 nM; in test [4] (setting [10]), below 50 nM; in test [5] (setting [11]), below 50 nM; in test [6] (setting [12]), 100 to 1000 nM. Also, in test [2], the MTAP intact/deleted ratio entry is on record as “A (an IC50 ratio greater than or equal to 10 fold)”.
For the compound `CCc1cc(NC(=O)C(=O)N2C[C@@H](C)CC[C@@H]2c2ccc(NC3CCN(C)CC3)cc2)cnc1N` [Compound 1112, N-(6-Amino-5-ethyl-3-pyridyl)-2-[(2R,5S)-5-methyl-2-[4-[(1-methyl-4-piperidyl)amino]phenyl]-1-piperidyl]-2-oxo-acetamide], the IC50 in test [1] (setting [7]) was below 50 nM; in test [2] (setting [8]), below 100 nM; in test [3] (setting [9]), below 1000 nM; in test [4] (setting [10]), 50 to 500 nM; in test [5] (setting [11]) it was below 50 nM; in test [6] (setting [12]), 100 to 1000 nM. Besides, the MTAP intact/deleted ratio result in test [2] is “A (an IC50 ratio greater than or equal to 10 fold)”.
Take `Cc1cc(NC(=O)C(=O)N2C[C@@H](C)CC[C@@H]2c2ccc3sc(C4CCN(CCF)CC4)nc3c2)cnc1N` [Compound 1114, N-(6-amino-5-methylpyridin-3-yl)-2-((2R,5S)-2-(2-(1-(2-fluoroethyl)piperidin-4-yl)benzo[d]thiazol-5-yl)-5-methylpiperidin-1-yl)-2-oxoacetamide]: the IC50 in test [1] (setting [7]) is below 50 nM; in test [2] (setting [8]) it was below 100 nM; in test [3] (setting [9]), below 1000 nM; in test [4] (setting [10]), below 50 nM; in test [5] (setting [11]), below 50 nM; in test [6] (setting [12]), below 100 nM. For the same compound, the MTAP intact/deleted ratio entry in test [2] was “A (an IC50 ratio greater than or equal to 10 fold)”.
On to `C[C@H]1CC[C@H](c2ccc3sc(C4CCN(C)CC4)nc3c2)N(C(=O)C(=O)Nc2cnc(N)c(C(F)(F)F)c2)C1` [Compound 1117, N-(6-amino-5-(trifluoromethyl)pyridin-3-yl)-2-((2R,5S)-5-methyl-2-(2-(1-methylpiperidin-4-yl)benzo[d]thiazol-5-yl)piperidin-1-yl)-2-oxoacetamide], for which the IC50 in test [1] (setting [7]) is below 50 nM; in test [2] (setting [8]), below 100 nM; in test [3] (setting [9]) it was below 1000 nM; in test [4] (setting [10]) it was below 50 nM; in test [5] (setting [11]) it was below 50 nM; in test [6] (setting [12]), 100 to 1000 nM. In addition, the MTAP intact/deleted ratio result in test [2] is listed as “A (an IC50 ratio greater than or equal to 10 fold)”.
As to `CCc1cc(NC(=O)C(=O)N2C[C@@H](C)CC[C@@H]2c2ccc3sc(C4(OC)CCN(C)CC4)nc3c2)cnc1N` [Compound 1118, N-(6-amino-5-ethylpyridin-3-yl)-2-((2R,5S)-2-(2-(4-methoxy-1-methylpiperidin-4-yl)benzo[d]thiazol-5-yl)-5-methylpiperidin-1-yl)-2-oxoacetamide], the IC50 is below 50 nM in test [1] (MTA IC50, PRMT5, MTA as cofactor); below 100 nM in test [2] (HAP1, read-out: HAP1 MTAP deleted IC50); below 1000 nM in test [3] (HAP1, read-out: HAP1 MTAP deleted viability); below 50 nM in test [4] (SAM IC50, PRMT5, SAM as cofactor); below 50 nM in test [5] (No Cofactor/rel IC50, PRMT5, no cofactor); below 100 nM in test [6] (HAP1, read-out: MTAP HAP1 intact IC50). The MTAP intact/deleted ratio entry in test [2] is recorded as “A (an IC50 ratio greater than or equal to 10 fold)”.
Regarding `Cc1cc(NC(=O)C(=O)N2C[C@@H](C)CC[C@@H]2c2ccc3sc(C4CN(C)C4)nc3c2)cnc1C` [Compound 1123, N-(5,6-dimethylpyridin-3-yl)-2-((2R,5S)-5-methyl-2-(2-(1-methylazetidin-3-yl)benzo[d]thiazol-5-yl)piperidin-1-yl)-2-oxoacetamide], the IC50 in test [1] (setting [7]) was below 50 nM; in test [2] (setting [8]), below 100 nM; in test [3] (setting [9]) it was below 1000 nM; in test [4] (setting [10]), below 50 nM; in test [5] (setting [11]) it was below 50 nM; in test [6] (setting [12]) it was 100 to 1000 nM. For the same compound, the MTAP intact/deleted ratio result in test [2] was “A (an IC50 ratio greater than or equal to 10 fold)”.
In the case of `CCc1cc(NC(=O)C(=O)N2C[C@@H](C)CC[C@@H]2c2ccc3sc(C4CCN(CCC(F)(F)F)CC4)nc3c2)cnc1N` [Compound 1124, N-(6-amino-5-ethylpyridin-3-yl)-2-((2R,5S)-5-methyl-2-(2-(1-(3,3,3-trifluoropropyl)piperidin-4-yl)benzo[d]thiazol-5-yl)piperidin-1-yl)-2-oxoacetamide], the IC50 is below 50 nM in test [1] (setting [7]); below 100 nM in test [2] (setting [8]); below 1000 nM in test [3] (setting [9]); 50 to 500 nM in test [4] (setting [10]); below 50 nM in test [5] (setting [11]); below 100 nM in test [6] (setting [12]). The MTAP intact/deleted ratio result in test [2] is on record as “B (an IC50 ratio greater than or equal to 3 fold but lower than 10 fold)”.
In the case of `CCc1cc(NC(=O)C(=O)N2C[C@@H](C)CC[C@@H]2c2ccc3sc([C@H]4CCN(C)C(C)(C)C4)nc3c2)cnc1N` [Compound 1125, N-(6-amino-5-ethylpyridin-3-yl)-2-((2R,5S)-5-methyl-2-(2-(1,2,2-trimethylpiperidin-4-yl)benzo[d]thiazol-5-yl)piperidin-1-yl)-2-oxoacetamide], the IC50 in test [1] (setting [7]) was below 50 nM; in test [2] (setting [8]) it was below 100 nM; in test [3] (setting [9]) it was below 1000 nM; in test [4] (setting [10]) it was below 50 nM; in test [5] (setting [11]), below 50 nM; in test [6] (setting [12]) it was below 100 nM. Further, the MTAP intact/deleted ratio entry in test [2] is reported as “A (an IC50 ratio greater than or equal to 10 fold)”.
